The text below walks through data of PubChem BioAssay AID977605 (Broad Institute, 2014).

The source made the active and inactive calls.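 The calls were made as follows: active = fitted curve reaches 40% activation below the top valid tested dose, in every test run; inconclusive = test runs disagree on the call; inactive = the rest, including effects opposite to the expected direction.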

A short description of one assay: E-selectin inducers in HUVECs, dose response, imaging, HUVEC, cherry-picked samples (AID 977605).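 Also: signal is the share of imaged cells scored positive for E-selectin.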 The note with it: HUVEC E-selectin immunostaining, at 16 µM (top of the series), percent of TNF-alpha response over vehicle.
With `C[C@@H]1CN([C@H](C)CO)C(=O)c2cccc(NC(=O)c3ccncc3)c2O[C@@H]1CN(C)Cc1ccc(C(=O)Nc2ccccc2N)cc1`, the activation is 4.83% (inactive).

The assay is the same for the next values; noted with them: HUVEC E-selectin immunostaining, at 18 µM (top of the series), percent of TNF-alpha response over vehicle.
With `COc1ccc(NC(=O)N(C)C[C@H]2Oc3ccc(NC(=O)CCCCCC(=O)Nc4ccccc4N)cc3CC(=O)N([C@@H](C)CO)C[C@H]2C)cc1`, the activation was 0.745% (inactive).

Staying with this assay, now noted: HUVEC E-selectin immunostaining, at 19.5 µM (top of the series).
For the compound `Cc1ccc(OC(F)F)c(N2C(=O)C3C4CCC(O4)C3C2=O)c1` (stereo unspecified), the activation is -0.065% (inactive).

Staying with this assay, now noted: HUVEC E-selectin immunostaining, at 19.5 µM (top of the series), percent of TNF-alpha response over vehicle.
Regarding `C[C@@H]1CN([C@H](C)CO)C(=O)c2cc(NS(C)(=O)=O)ccc2O[C@@H]1CN(C)Cc1ccc(C(F)(F)F)cc1`, the activation was -0.068% (inactive). The same measure, in the same setting: to `COc1ccc(S(=O)(=O)NCC(=O)NCc2cc(=O)n(C)c(=O)n2C)cc1F` belongs 0.047% (inactive). Take `C=CCn1c(=N)n(CC(=O)c2ccc(Br)s2)c2ccccc21`: the activation is 1.81% (inactive). Still for that read-out and setting: in the case of `C[C@H]1CN([C@@H](C)CO)C(=O)c2cc(NC(=O)Nc3ccc4c(c3)OCO4)ccc2O[C@@H]1CN(C)S(=O)(=O)c1ccc(F)cc1` it was -0.105% (inactive). Regarding `CN(Cc1cccc2ncccc12)C(=O)CC1C(=O)NCCN1Cc1ccc(F)cc1` (stereo unspecified), the activation is -0.111% (inactive).

For the compound `CC(C)C(c1nnnn1C1CCCCC1)N1CCN(C(=O)c2ccco2)CC1` (stereo unspecified), the activation is -0.112% (inactive).

Consider `COC(=O)C[C@H]1CC[C@H]2[C@@H](COc3ccc(NC(=O)C4CC4)cc3C(=O)N2C)O1`, for which the activation is 3.57% (inactive).

For `Cc1ccc(CCNC(=O)C2CCC(CNc3c(N4CCC(C)CC4)c(=O)c3=O)CC2)cc1` (stereo unspecified), the activation was -0.022% (inactive). Same read-out and setting: in the case of `C[C@H]1CN([C@@H](C)CO)C(=O)c2cc(C#Cc3cccc(F)c3)cnc2O[C@@H]1CN(C)C(=O)C1CC1` it was -0.134% (inactive). Turning to `CCOc1ccc(S(=O)(=O)N2CCC(C(=O)NCc3cccnc3)CC2)cc1`, the activation was -0.239% (inactive). On the same count and under the same terms, to `COc1ccc(S(=O)(=O)N(C)C[C@@H]2Oc3ccc(NC(=O)Nc4c(C)noc4C)cc3C(=O)N([C@H](C)CO)C[C@@H]2C)cc1` belongs -0.123% (inactive); to `c1ccc(-c2ccccc2OCCOCCN2CCNCC2)cc1`, 0.084% (inactive). The same measure, in the same setting: to `Cc1ccc(OCc2nc(-c3cccnc3)no2)cc1C` belongs -0.108% (inactive). On the same count and under the same terms, in the case of `CCOc1cc(N2CCOCC2)c(OCC)cc1NC(=O)c1ccc(S(=O)(=O)N2CC(C)OC(C)C2)cc1` (stereo unspecified) it was -0.215% (inactive); in that of `C[C@@H]1CN([C@@H](C)CO)C(=O)c2cc(C#CC3CC3)cnc2O[C@@H]1CN(C)C(=O)c1ccccc1`, -0.295% (inactive). As to `C[C@H]1CN([C@@H](C)CO)C(=O)Cc2cc(NC(=O)C3CC3)ccc2O[C@@H]1CN(C)S(=O)(=O)c1cccs1`, the activation is -0.038% (inactive). Same read-out and setting: in the case of `CCCC#Cc1ccc2c(c1)O[C@@H](CN(C)S(=O)(=O)c1cccc(OC)c1)[C@@H](C)CN([C@@H](C)CO)S2(=O)=O` it was 0.13% (inactive).

Regarding `C[C@H]1CN([C@@H](C)CO)C(=O)c2cc(NC(=O)CCN3CCOCC3)ccc2O[C@@H]1CN(C)S(=O)(=O)c1ccc(Cl)cc1`, the activation is -0.142% (inactive). Still for that read-out and setting: in the case of `CC(=O)NC(Cc1c[nH]c2ccccc12)C(=O)NCCc1ccccn1` (stereo unspecified) it was 0.144% (inactive); in that of `CCCNC(=O)N(C)C[C@@H]1Oc2ncc(C3=CCCC3)cc2C(=O)N([C@H](C)CO)C[C@H]1C`, 0.267% (inactive). In the case of `C[C@H](CO)N1C[C@H](C)[C@@H](CN(C)Cc2ccc(C(F)(F)F)cc2)Oc2c(NS(C)(=O)=O)cccc2C1=O`, the activation was -0.122% (inactive). Still for that read-out and setting: to `C[C@H](CO)N1C[C@H](C)[C@H](CN(C)Cc2ccc3c(c2)OCO3)Oc2ccc(NC(=O)Cc3cn(C)c4ccccc34)cc2C1=O` belongs 0.14% (inactive); to `C[C@@H]1CN([C@@H](C)CO)C(=O)c2cccc(NS(=O)(=O)c3cn(C)cn3)c2O[C@H]1CN(C)Cc1ccncc1`, -0.172% (inactive). Same read-out and setting: in the case of `C[C@H](CO)N1C[C@H](C)[C@H](CN(C)Cc2ccc(C(=O)Nc3ccccc3N)cc2)Oc2ccc(NS(=O)(=O)c3cccs3)cc2CC1=O` it was 6.58% (inactive); in that of `C[C@H](CO)N1C[C@H](C)[C@H](CN(C)C(=O)c2ccc3c(c2)OCO3)Oc2cc(-c3ccccc3)ccc2S1(=O)=O`, -0.242% (inactive).

For `COc1cccc(NC(=O)C2C3C=CC4(O3)C2C(=O)N(CCCN2CCCCC2)C4C(=O)NC2CCCCC2)c1` (stereo unspecified), the activation was 1.56% (inactive). On the same count and under the same terms, to `COc1ccc(CNS(=O)(=O)c2ccc3c(c2)C(C)(C)C(=O)N3C)cc1` belongs 0.021% (inactive); to `C[C@@H]1CN([C@@H](C)CO)C(=O)Cc2cc(NC(=O)C3CC3)ccc2O[C@@H]1CN(C)Cc1ccc2c(c1)OCO2`, -0.129% (inactive). With `Cc1cc(C)cc(NC(=O)Cc2ccc(NC3=NC4CS(=O)(=O)CC4S3)cc2)c1` (stereo unspecified), the activation was 0.105% (inactive). The same measure, in the same setting: in the case of `Cc1noc(C)c1S(=O)(=O)N(C)C[C@H]1Oc2ccc(NS(C)(=O)=O)cc2CC(=O)N([C@@H](C)CO)C[C@H]1C` it was 0.259% (inactive). `C[C@@H]1CN([C@H](C)CO)C(=O)c2cc(NS(=O)(=O)c3ccc(F)cc3)ccc2O[C@@H](C)CCCCO[C@@H]1CN(C)S(C)(=O)=O`: the activation is 3.44% (inactive).

As to `COc1ccc(NS(=O)(=O)c2ccc3c(c2)CCCN3C(C)=O)cc1`, the activation is -0.06% (inactive). On the same count and under the same terms, in the case of `C[C@@H]1CN([C@H](C)CO)C(=O)c2cc(C#Cc3cccc(F)c3)cnc2O[C@H]1CN(C)C(=O)C1CCC1` it was 0.008% (inactive); in that of `CCNC(=O)CC1C(=O)N(c2ccc(OC)cc2)C(=O)N1CCOC` (stereo unspecified), -0.131% (inactive); in that of `C[C@@H]1CN([C@H](C)CO)C(=O)c2cccc(NC(=O)CCCCCC(=O)Nc3ccccc3N)c2O[C@@H]1CN(C)S(=O)(=O)c1cn(C)cn1`, -0.195% (inactive). The same measure, in the same setting: in the case of `C[C@H]1CN([C@@H](C)CO)C(=O)c2cccc(NC(=O)c3ccncc3)c2O[C@H]1CN(C)Cc1ccc(C(=O)Nc2ccccc2N)cc1` it was 0.016% (inactive); in that of `CNC(=O)C[C@H]1CC[C@H]2[C@@H](COc3ccc(NC(=O)c4cccc(F)c4)cc3C(=O)N2C)O1`, 1.5% (inactive); in that of `COc1ccc(N2CCN(C(=O)c3ccccc3NC(=O)C3=C(C)OCCS3)CC2)cc1`, -0.181% (inactive). On the same count and under the same terms, to `COc1ccc(S(=O)(=O)Nc2cccc3c2O[C@H](CN(C)C(=O)Nc2cccc4ccccc24)[C@@H](C)CN([C@H](C)CO)C3=O)cc1` belongs -0.185% (inactive); to `CCn1c(SCC(=O)N(C)Cc2ccc(OC)c(F)c2)nc2cc(S(N)(=O)=O)ccc21`, -0.113% (inactive). Take `COc1ccc(S(=O)(=O)N(C)C[C@H]2Oc3ccc(NC(=O)CCCN(C)C)cc3C(=O)N([C@@H](C)CO)C[C@H]2C)cc1`: the activation is 0.162% (inactive).

Consider `C[C@@H]1CN([C@@H](C)CO)C(=O)Cc2cc(NC(=O)Cn3cnnn3)ccc2O[C@H]1CN(C)Cc1ccc(Oc2ccccc2)cc1`, for which the activation is 0.416% (inactive).

On to `C/C=C/c1ccc2c(c1)O[C@H](CN(C)C(=O)CC)[C@@H](C)CN([C@H](C)CO)S2(=O)=O`, for which the activation is 25.5% (inactive). Take `O=C(C1CCCN(c2nnc(-n3cccc3)s2)C1)N1CCN(c2ccccc2)CC1` (stereo unspecified): the activation was 0.14% (inactive). In the case of `Cc1noc(C)c1S(=O)(=O)Nc1ccc2c(c1)C(=O)N([C@H](C)CO)C[C@@H](C)[C@@H](CN(C)Cc1ccc3c(c1)OCO3)O2`, the activation was -0.086% (inactive). Consider `O=S(=O)(NCc1csc(-c2cccs2)n1)c1cccc(C(F)(F)F)c1`, for which the activation was -0.123% (inactive).

The assay is the same for the next values; noted with them: HUVEC E-selectin immunostaining, at 21 µM (top of the series), percent of TNF-alpha response over vehicle.
Consider `C[C@H]1CN([C@@H](C)CO)C(=O)c2cc(NC(=O)Cn3cnnn3)ccc2O[C@H]1CN(C)Cc1ccc(Oc2ccccc2)cc1`, for which the activation was 0.004% (inactive). Take `Cc1noc(C)c1NC(=O)Nc1ccc2c(c1)CC(=O)N([C@H](C)CO)C[C@H](C)[C@H](CN(C)S(=O)(=O)c1ccccc1)O2`: the activation was -0.132% (inactive). On the same count and under the same terms, to `C[C@H]1CN([C@@H](C)CO)C(=O)c2cccc(NC(=O)c3ccc(-c4nccs4)cc3)c2O[C@H]1CN(C)Cc1ccc(Oc2ccccc2)cc1` belongs 0.436% (inactive); to `C[C@@H]1CN([C@@H](C)CO)C(=O)c2cc(NS(=O)(=O)c3cn(C)cn3)ccc2O[C@H]1CN(C)C(=O)Nc1ccc(F)cc1`, 0.066% (inactive); to `COc1ccc(CN(C)C[C@H]2Oc3ccc(NC(=O)CCCN(C)C)cc3C(=O)N([C@H](C)CO)C[C@H]2C)cc1`, -0.188% (inactive). The same measure, in the same setting: to `CN1C(=O)c2cc(NC(=O)C3CCOCC3)ccc2OC[C@@H]2O[C@H](CC(=O)NCc3ccccc3F)CC[C@H]21` belongs -0.036% (inactive); to `C[C@H]1CN([C@@H](C)CO)C(=O)c2cccc(NS(=O)(=O)c3cccs3)c2O[C@@H]1CN(C)Cc1ccc(C(=O)Nc2ccccc2N)cc1`, -0.225% (inactive); to `CC(C)NC(=O)N(C)C[C@H]1Oc2c(NC(=O)CCCCCC(=O)Nc3ccccc3N)cccc2C(=O)N([C@@H](C)CO)C[C@H]1C`, -0.093% (inactive). For `COc1ccc(S(=O)(=O)N(C)C[C@H]2Oc3ccc(NC(=O)c4ccncc4)cc3C(=O)N([C@H](C)CO)C[C@H]2C)cc1`, the activation is 4.32% (inactive).

With `COc1ccc(S(=O)(=O)Nc2cccc3c2O[C@H](CN(C)C(=O)Nc2c(C)noc2C)[C@@H](C)CN([C@@H](C)CO)C3=O)cc1`, the activation is -0.092% (inactive). The same measure, in the same setting: in the case of `C[C@H]1CN([C@@H](C)CO)C(=O)c2cc(NC(=O)Nc3ccccc3)ccc2O[C@@H]1CN(C)C(=O)Nc1ccc(C(F)(F)F)cc1` it was 0.08% (inactive). For the compound `C[C@@H]1CN([C@H](C)CO)C(=O)c2cccc(NS(=O)(=O)c3ccc(F)cc3)c2O[C@@H]1CN(C)S(=O)(=O)c1cccs1`, the activation is -0.042% (inactive).
